Data set [1] relates to Chrysanthemum indicum (Variety: Yellow Delaware). Put plainly: Combating iron deficiency/leaf uptake test. The class given is in vivo. On the procedure:
Test plant: Chrysanthemum indicum (Variety: Yellow Delaware)
Culture substrate: Mixture of polystyrene foam flock (Styromull) and potassium alginate in the volume ratio of 10:1
To prepare a suitable formulation of the active compound, the particular amount of active compound desired was dissolved in water.
Test plants were grown in a culture substrate of the composition indicated above, fertilization and watering being effected by adding, twice weekly, a mineral-iron-deficient nutrient solution according to Hoagland and Arnon (Circular 347, College of Agriculture, University of California, Berkeley 1950). […] After 2 days the plants were again sprayed with the active compound formulation in the same manner.
The evaluation took place when an average of 2 leaves had newly formed on the plants treated with an optimum amount of a water-soluble, commercially available iron fertilizer, in each case, the average number of newly formed leaves was determined on all test plants. Furthermore, the intensity of the green colour of newly formed leaves was rated and expressed as a numerical code.
In this, the figures denoted:
1=0% chlorotic (dark green)
9=100% chlorotic (corresponding to the untreated control plants)

A short description of data set [2]: Water solubility of the preparation. The class given is physicochemical.
Setting [3] is: nutrient preparation in the spray liquor 0.03 %.
[4] abbreviates: nutrient preparation in the spray liquor 0.14 %.
Where [5] appears, read: nutrient preparation in the spray liquor 0.15 %.
The mark [6] stands for this setting: nutrient preparation in the spray liquor 0.74 %.
Where [7] appears, read: nutrient preparation in the spray liquor 0.12 %.
The mark [8] stands for this setting: nutrient preparation in the spray liquor 0.59 %.
Setting [9] is: nutrient preparation in the spray liquor 0.13 %.
Setting [10] is: nutrient preparation in the spray liquor 0.62 %.
The mark [11] stands for this setting: nutrient preparation in the spray liquor 0.66 %.
[12] abbreviates: nutrient preparation in the spray liquor 0.16 %.
Where [13] appears, read: nutrient preparation in the spray liquor 0.78 %.

Take `CCCCCCCC(=O)[c-]1cccc1.[Fe+2].c1cc[cH-]c1` [Example 6, n-octanoylferrocene]: in data set [1] (setting [3]), the “Average number of newly formed leaves” value amounted to 4 and the “Intensity of the green colour of young leaves” value (“Intensity” for short) is 3 (25% chlorotic). Besides, in data set [1] (setting [4]), the “Average number of newly formed leaves” value is 5 and the “Intensity” value is on record as 2-3. In data set [2], the “Water solubility of the preparation” value is listed as “slight”.

In the case of `CCCCCCCCC(=O)[c-]1cccc1.[Fe+2].c1cc[cH-]c1` [Example 7, n-nonaoylferrocene], the results for the “Average number of newly formed leaves” value in data set [1] (setting [3]), in data set [1] (setting [5]) and in data set [1] (setting [6]) were 4, 5 and 5, respectively. Besides, the figures for the “Intensity” value in data set [1] (setting [3]), in data set [1] (setting [5]) and in data set [1] (setting [6]) were 3 (25% chlorotic), 2-3 and 2, respectively. In addition, the “Water solubility of the preparation” value in data set [2] is given as “slight”.

Turning to `CCCCC(=O)[c-]1cccc1.[Fe+2].c1cc[cH-]c1` [Example 3, n-pentanoylferrocene], the “Average number of newly formed leaves” value in data set [1] (setting [7]) and in data set [1] (setting [8]) was 4 in each case. For the same molecule, the results for the “Intensity” value in data set [1] (setting [7]) and in data set [1] (setting [8]) were 2-3 and 2, respectively. Moreover, the “Water solubility of the preparation” value in data set [2] is “slight”.

Regarding `CCCCCC(=O)[c-]1cccc1.[Fe+2].c1cc[cH-]c1` [Example 4, n-hexanoylferrocene], in data set [1] (setting [9]), the “Average number of newly formed leaves” value turned out to be 3 and the “Intensity” value is listed as 3 (25% chlorotic). Moreover, in data set [1] (setting [10]), the “Average number of newly formed leaves” value was found to be 3 and the “Intensity” value is given as 2-3. Besides, in data set [2], the “Water solubility of the preparation” value is on record as “slight”.

`CCCCCCC(=O)[c-]1cccc1.[Fe+2].c1cc[cH-]c1` [Example 5, n-heptanoylferrocene]: in data set [1] (setting [9]), the “Average number of newly formed leaves” value is listed as 4 and the “Intensity” value was 3 (25% chlorotic). In addition, in data set [1] (setting [11]), the “Average number of newly formed leaves” value is listed as 4 and the “Intensity” value is 2-3. Also, the “Water solubility of the preparation” value in data set [2] is recorded as “slight”.

Regarding `CCCCCCCCCC(=O)[c-]1cccc1.[Fe+2].c1cc[cH-]c1` [Example 2, n-decanoyl-ferrocene], the “Average number of newly formed leaves” value in data set [1] (setting [3]) is on record as 4; in data set [1] (setting [12]), 5; in data set [1] (setting [13]), 5. The “Intensity” value is 3 (25% chlorotic) in data set [1] (setting [3]), 2-3 in data set [1] (setting [12]) and 2 in data set [1] (setting [13]). Also, the “Water solubility of the preparation” value in data set [2] was “slight”.

Source of the values: patent US4167405A, “Fertilizers for supplying plants with iron” (Bayer Aktiengesellschaft, priority 1977, dated 1979).
